# Reference: patent US9212130B2, “Heterocyclic derivative and pharmaceutical composition comprising the same” (SHIONOGI & CO., LTD., priority 2010, dated 2015)
# Molecular target: human P2X3 receptor (Homo sapiens (Human), UniProt P56373)
# Test: Evaluation of human P2X3 receptor inhibitory activity (ATP-induced Fluo-3 fluorescence, FDSS 3000)
# Type: cell-based
# Conditions: C6BU-1 cell transfected with human P2X3 receptor gene
# Description: The plate was placed in High-Throughput Screening System FDSS 3000 (Hamamatsu Photonics K.K.). […] Five minutes after, 50 nM ATP solution (50 μL) prepared by dilution with the dilution buffer was dispensed through the built-in automatic dispenser, and the measurement of fluorescence intensity was continued for 3 min. For each well, the specific maximum fluorescence intensity was calculated as the ratio of the maximum fluorescence intensity after addition of the ATP solution to the fluorescence intensity at the starting of the measurement. […] FDSS software (Hamamatsu Photonics K.K.) was used for calculation of the specific maximum fluorescence intensity. IC50 was calculated using Microsoft Excel (Microsoft. Corporation) and XLfit (idbs Ltd.)
# The aforementioned in mM, μM and nM are each means mmol/L, μmol/L and nmol/L, respectively.
# In tables, μM means μmol/L.
# Chain of human P2X3 receptor (P56373 whole entry): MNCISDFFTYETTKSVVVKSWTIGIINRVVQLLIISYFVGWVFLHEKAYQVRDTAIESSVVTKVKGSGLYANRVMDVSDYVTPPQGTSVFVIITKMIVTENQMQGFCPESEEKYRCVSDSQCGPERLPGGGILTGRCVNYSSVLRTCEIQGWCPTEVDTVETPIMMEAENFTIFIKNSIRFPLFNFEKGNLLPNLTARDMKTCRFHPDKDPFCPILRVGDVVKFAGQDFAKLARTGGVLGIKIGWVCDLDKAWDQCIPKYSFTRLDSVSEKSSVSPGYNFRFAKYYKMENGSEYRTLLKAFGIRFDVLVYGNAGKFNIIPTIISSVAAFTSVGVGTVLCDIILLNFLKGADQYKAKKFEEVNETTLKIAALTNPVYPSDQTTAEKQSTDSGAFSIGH
row,SMILES,IC50 [µM]
1,Cc1nc2ccc(Nc3ncc(NC(=O)C4CCOCC4)c(=O)n3Cc3ccc(Cl)cc3)cc2s1 [I-264],0.004
2,CNc1cnc(Nc2ccc(OC(C)C)c(F)c2)n(Cc2ccc(Cl)cc2)c1=O [I-222],0.56
3,COC(=O)CCCn1c(=O)cc(Nc2ccc3nc(C)sc3c2)n(Cc2ccc(Cl)cc2)c1=O [I-352],0.024
4,CC(C)Oc1ccc(Nc2ncc(C(=O)NCCO)c(=O)n2Cc2ccc(Cl)cc2)cc1F [I-152],0.096
5,CC(C)Oc1ccc(Nc2ncc(NC(=O)C(=O)O)c(=O)n2Cc2ccc(Cl)cc2)cc1F [I-254],0.02
6,Cc1nc2ccc(Nc3ncc(C)c(=O)n3Cc3ccc(Cl)cc3)cc2s1 [I-280],0.237
7,CC(C)Oc1ccc(Nc2nc(=O)c(NC(=O)OC(C)(C)C)cn2Cc2ccc(Cl)cc2)cc1F [I-230],0.092
8,CC(=O)OC(C)(C)C(=O)Nc1cnc(Nc2ccc(Oc3ccc(C)nc3)cc2)n(Cc2ccc(Cl)cc2)c1=O [I-293],0.014
9,CC(C)Oc1ccc(NC2=CC(O)N(CC(=O)NC(CO)CO)C(=O)N2Cc2ccc(Cl)cc2)cc1F (stereo not drawn) [I-111],0.011
10,CCNC(=O)Nc1cnc(Nc2ccc(OC(C)C)c(F)c2)n(Cc2ccc(Cl)cc2)c1=O [I-250],0.007
11,CC(C)Oc1ccc(Nc2ncc(NC(=O)CCC(=O)O)c(=O)n2Cc2ccc(Cl)cc2)cc1F [I-231],0.226
12,Cc1nc2ccc(Nc3nc(=O)c(C(=O)NCCC#N)cn3Cc3ccc(Cl)cc3)cc2s1 [I-301],0.123
13,COCCCNC(=O)c1cn(Cc2ccc(Cl)cc2)c(Nc2ccc3nc(C)sc3c2)nc1=O [I-300],0.164
14,CCc1nc2ccc(Nc3ncc(NC(=O)C4CCOCC4)c(=O)n3Cc3ccc(Cl)cc3)cc2s1 [I-262],0.003
15,Cc1nc2ccc(Nc3nc(C)c(NC(=O)OC(C)(C)C)c(=O)n3Cc3ccc(Cl)cc3)cc2s1 [I-348],0.105
16,"CC(C)Oc1ccc(Nc2oc(Cc3ccccc3)nc2Cc2ccc(Cl)cc2)cc1F [I-070, 4-(4-chlorobenzyl)-2-benzyl-5-(3-fluoro-4-isopropoxyphenylamino)oxazole]",0.635
17,COC(=O)[C@@H](C)Cn1c(=O)cc(Nc2ccc(OC(C)C)cc2)n(Cc2ccc(Cl)cc2)c1=O [I-216],0.105
18,"CC(C)Oc1ccc(Nc2cc(=O)n(CC(=O)O)c(=O)n2Cc2ccc(Cl)cc2)cc1F [I-105, 1-(4-chlorobenzyl)-6-(3-fluoro-4-isopropoxyphenylamino)-3-(hydroxycarbonylmethyl)pyrimidine-2,4(1H,3H)-dion]",0.412
19,Cc1ccc(Oc2ccc(Nc3ncc(NC(=O)C(CO)CO)c(=O)n3Cc3ccc(Cl)cc3)cc2)cn1 [I-298],0.008
20,"CC(C)Oc1ccc(Nc2cc(=O)n(Cc3ccccc3)cc2Cc2ccc(Cl)cc2)cc1Cl [I-067, 4-(3-chloro-4-isopropoxyphenylamino)-1-benzyl-5-(4-chlorobenzyl)pyridine-2(1H)-one]",0.31
21,O=C(Nc1cnc(Nc2ccc(Oc3cnc(Cl)c(F)c3)cc2)n(Cc2ccc(Cl)cc2)c1=O)C1CCOCC1 [I-311],0.004
22,CC(C)Oc1ccc(Nc2ncc(NC(=O)N3CCOCC3)c(=O)n2Cc2ccc(Cl)cc2)cc1F [I-278],0.016
23,COC(=O)C(C)(C)Cn1c(=O)cc(Nc2ccc(OC(C)C)c(Cl)c2)n(Cc2ccc(Cl)cc2)c1=O [I-010],0.01

row,SMILES,IC50 [µM]
1,Cc1ccc(Oc2ccc(Nc3ncc(NC(=O)C(C)(C)O)c(=O)n3Cc3ccc(Cl)cc3)cc2)cn1 [I-295],0.002
2,"CC(C)Oc1ccc(Nc2nc(=O)c(C(=O)NCCO)cn2Cc2ccc(Cl)cc2)cc1F [I-146, 1-(4-chlorobenzyl)-2-(3-fluoro-4-isopropoxyphenylamino)-5-[N-(2-hydroxyethyl)carbamoyl]pyrimidine-4(1H)-one]",0.383
3,CC(C)Oc1ccc(Nc2nc(=O)c(NC(=O)C3CCOCC3)cn2Cc2ccc(Cl)cc2)cc1F [I-238],0.653
4,CCOC(=O)c1cn(Cc2ccccc2)c(=O)cc1Nc1ccc(OC(C)C)c(Nc2ccc(OC(C)C)c(Cl)c2)c1 [I-061],0.748
5,CC(C)Oc1ccc(Nc2cc(=O)n(Cc3ccc(Cl)cc3)c(=O)n2Cc2ccc(Cl)cc2)cc1Cl [I-005],0.238
6,CC(C)Oc1ccc(Nc2ncc(C(=O)NN)c(=O)n2Cc2ccc(Cl)cc2)cc1F [I-272],0.104
7,CC(C)Oc1ccc(Nc2ncc(CCC(=O)O)c(=O)n2Cc2ccc(Cl)cc2)cc1F [I-232],0.681
8,CC(C)Oc1ccc(Nc2ncc(C(=O)NNC(=O)OC(C)(C)C)c(=O)n2Cc2ccc(Cl)cc2)cc1F [I-271],0.029
9,CC(C)Oc1ccc(Nc2nc(=O)c(NC=O)cn2Cc2ccc(Cl)cc2)cc1F [I-239],0.515
10,CC(=O)N1CCC(C(=O)Nc2cnc(Nc3ccc(OC(C)C)c(F)c3)n(Cc3ccc(Cl)cc3)c2=O)CC1 [I-270],0.01
11,Cc1nc2ccc(Nc3nc(C)c(C(N)=O)c(=O)n3Cc3ccc(Cl)cc3)cc2s1 [I-347],0.182
12,COc1cc(C(=O)Nc2cnc(Nc3ccc(OC(C)C)c(F)c3)n(Cc3ccc(Cl)cc3)c2=O)ccn1 [I-273],0.095
13,COC(=O)[C@@H](C)Cn1c(=O)cc(Nc2ccc(OC(C)C)c(C)c2)n(Cc2ccc(Cl)cc2)c1=O [I-212],0.037
14,CC(C)Oc1ccc(Nc2ncc(Br)c(=O)n2Cc2ccc(Cl)cc2)cc1F [I-257],0.319
15,"CCc1cnc(Nc2ccc(OC(C)C)c(F)c2)c(Oc2ccc(C)cc2)n1 [I-072, 5-ethyl-2-(3-fluoro-4-isopropoxyphenylamino)-3-(4-methylphenoxy)pyrazine]",0.749
16,CCOC(=O)c1cn(Cc2ccccc2)c(Nc2ccc(OC(C)C)c(Cl)c2)cc1=O [I-049],0.796
17,"CC(C)Oc1ccc(Nc2nc(=O)c(Cc3ccccc3)cn2Cc2ccc(Cl)cc2)cc1Cl [I-023, 5-benzyl-1-(4-chlorobenzyl)-2-(3-chloro-4-isopropoxyphenylamino)pyrimidine-4(1H)-one]",0.148
18,CCOC(=O)c1cn(Cc2ccc(Cl)cc2)c(Nc2ccc3nc(C)sc3c2)nc1=O [I-282],0.272
19,Cc1nc2ccc(Nc3ncc(NC(=O)C(CO)CO)c(=O)n3Cc3ccc(Cl)cc3)cc2s1 [I-361],0.01
20,CCn1c(=O)cc(Nc2ccc(Oc3ccnc(C(=O)OC)c3)cc2)n(Cc2ccc(Cl)cc2)c1=O [I-316],0.009
21,CC(C)Oc1ccc(Nc2ncc(Cc3ccccc3)c(=O)n2Cc2ccc(Cl)cc2)cc1Cl [I-022],0.147
22,CCOC(=O)CCC1=CN(Cc2ccc(Cl)cc2)C(Nc2ccc(OC(C)C)c(Cl)c2)=NC1O (stereo not drawn) [I-115],0.051
23,Cc1nc2ccc(Nc3ncc(Br)c(=O)n3Cc3ccc(Cl)cc3)cc2s1 [I-306],0.207

row,SMILES,IC50 [µM]
1,COCCC(=O)Nc1cnc(Nc2ccc(OC(C)C)c(F)c2)n(Cc2ccc(Cl)cc2)c1=O [I-248],0.024
2,CC(C)Oc1ccc(Nc2ncc(NC(=O)c3ccc(=O)[nH]c3)c(=O)n2Cc2ccc(Cl)cc2)cc1F [I-276],0.032
3,CC(C)Oc1ccc(Nc2ncc(N(C)C(=O)OC(C)(C)C)c(=O)n2Cc2ccc(Cl)cc2)cc1F [I-208],0.05
4,"CC(C)Oc1ccc(Nc2cc(=O)n(Cc3ccccc3)cc2C(=O)c2ccc(Cl)cc2)cc1Cl [I-065, 4-(3-chloro-4-isopropoxyphenylamino)-1-benzyl-5-(4-chlorobenzoyl)pyridine-2(1H)-one]",0.128
5,CC(C)Oc1ccc(Nc2ncc(NCC3CCOCC3)c(=O)n2Cc2ccc(Cl)cc2)cc1F [I-224],0.511
6,COc1ccc(C(=O)Nc2cnc(Nc3ccc(OC(C)C)c(F)c3)n(Cc3ccc(Cl)cc3)c2=O)cn1 [I-274],0.066
7,CC(C)Oc1ccc(Nc2cc(=O)n(C[C@H](C)C(=O)O)c(=O)n2Cc2ccc(Cl)cc2)nc1 [I-217],0.453
8,CC(C)Oc1ccc(Nc2nc(=O)c(/C=C/C(=O)O)cn2Cc2ccc(Cl)cc2)cc1Cl [I-097],0.307
9,O=C(Nc1cnc(Nc2ccc(Oc3cncc(F)c3)cc2)n(Cc2ccc(Cl)cc2)c1=O)C1CCOCC1 [I-245],0.0008
10,CC(C)Oc1ccc(Nc2ncc(C(=O)NC(CO)CO)c(=O)n2Cc2ccc(Cl)cc2)cc1F [I-153],0.059
11,CC(C)Oc1ccc(Nc2ncc(C(N)=O)c(=O)n2Cc2ccc(Cl)cc2)cc1F [I-258],0.047
12,CC(=O)Nc1cnc(Nc2ccc(OC(C)C)c(F)c2)n(Cc2ccc(Cl)cc2)c1=O [I-246],0.106
13,Cc1ccc(Cc2c(Nc3ccc(OC(C)C)cc3)[nH]c(=O)n(Cc3ccccc3)c2=O)cc1 [I-014],0.404
14,Cc1nc2ccc(Nc3ncc(NC(=O)OCc4ccccc4)c(=O)n3Cc3ccc(Cl)cc3)cc2s1 [I-319],0.105
15,CC(C)Oc1ccc(Nc2cc(=O)n(CC3COC(C)(C)OC3)c(=O)n2Cc2ccc(Cl)cc2)cc1Cl [I-094],0.005
16,"CC(=O)Nc1c(O)[nH]/c(=N\c2ccc(OC(C)C)cc2)n(Cc2ccc(Cl)cc2)c1=O [I-339, 1-(4-chlorobenzyl)-3-acetylamino-4-hydroxy-6-(4-isopropoxyphenylimino)-2,3-dihydro-pryimidine-4-one]",0.518
17,CCn1c(=O)cc(Nc2ccc(Oc3ccnc(C(=O)O)c3)cc2)n(Cc2ccc(Cl)cc2)c1=O [I-317],0.003
18,Cc1nc2ccc(Nc3cc(=O)n(CCO)c(=O)n3Cc3ccc(Cl)cc3)cc2s1 [I-355],0.057
19,Cc1ccc(Oc2ccc(Nc3ncc(NC(=O)C4CCOCC4)c(=O)n3Cc3ccc(Cl)cc3)cc2)cn1 [I-265],0.001
20,COC(=O)C(C)(C)Cn1c(=O)cc(Nc2ccc(OC(C)C)c(F)c2)n(Cc2ccc(Cl)cc2)c1=O [I-020],0.028
21,CC(=O)OC(C)(C)C(=O)Nc1cnc(Nc2ccc3nc(C)sc3c2)n(Cc2ccc(Cl)cc2)c1=O [I-358],0.016
22,Cc1ccc(Oc2ccc(Nc3ncc(N)c(=O)n3Cc3ccc(Cl)cc3)cc2)cn1 [I-292],0.433
23,Cc1nc2ccc(Nc3ncc(NC(=O)C(C)(C)O)c(=O)n3Cc3ccc(Cl)cc3)cc2s1 [I-360],0.003
